This experiment has as its system A549 human lung carcinoma cells. The experiment is described as follows: Tumor cell proliferation (cell count), indirect co-culture with submucosal tissue membrane. It is filed as cell-based. As for the experimental part:
Carcinoma ceil lines including A549 (human lung adenocarcinoma), MCF-7 (human breast carcinoma) and human colorectal carcinoma cell lines were obtained from American Type Cell Culture (ATCC). Cell cultures were routinely performed at 37°C in an incubator supplemented with 5% CO2 and 95% air. Media used were F-12 pius 10° o FBS (fetal bovine serum) (Gibco BRL) for the A549 cells and RPMI plus 10% FBS (Gibco BRL) for both the MCF-7 and colonic carcinoma cell lines. The inhibition of tumor cell growth on several different forms of submucosal tissue including PA-ST (submucosal tissue sterilized in peracetic acid), Native submucosal tissue (no further treatment after dissection), Gamma irradiated submucosal tissue and solubilized submucosal tissue was assessed.
Cancer cells were cultured in the presence of various forms of intestinal submucosal tissue at 37°C in an incubator supplemented with 5% CO2 and 95% air using the following procedures: • 1. Direct Contact: Intestinal submucosal tissue and the cultured cells physically contact one another. • 2. Indirect Contact: Intestinal submucosal tissue and the cultured cells are separated by a stainless steel mesh. • 3. Solubilized intestinal submucosal tissue added to the culture media. • 4. Cells are cultured on solubilized intestinal submucosa coated culture plate. The coating was applied by placing 1 ml of solubilized intestinal submucosal tissue in a 35mm culture plate, heating at 37°C for 2 hours, removing the excess intestinal submucosal tissue fluid by aspiration and washing the coated plates once with culture media.
• 1. […]
Tumor cells were plated at a cell density of approximately 5x10^5 cells/dish of 60 mm tissue culture dishes and grown until they reached about 50% confluence. Cell cultures were then subjected to the following treatments in triplicates: 1) control, cells grown in media only; 2) addition of different quantities of solubilized submucosal tissue (200-800 µl); 3) co-culture with submucosal tissue membranes of different sizes (indirect co-culture). […]

This is an account of results in EP0956028B1, “[…] INHIBITION OF […] GROWTH” (Purdue Research Foundation, priority 1996, dated 1998).

As for `CC(=O)OO` [Peracidic Acid, peracetic acid], for the setting “100 µl of Peracidic Acid, A549”, the “Cell Count (x10^5) (day 2 of treatment)” value is listed as 18.81 ± 2.59 x10^5. In addition, the “% of Control” value (100 µl of Peracidic Acid, A549 cell count, day 2 of treatment) came out at 97%. The “inhibitory effect on cell proliferation” value (added exogenously to tumor cells) is given as “no significant inhibitory effect”.
